In patent US20190202774A1, “BIARYL COMPOUNDS AS ANTIMICROBIAL AND CHEMOTHERAPEUTIC AGENTS” (priority 2015, published 2019):
Converted amounts (≈) assume the structure as drawn. “Also recorded” adds a separate entry of the source. Counter-ions that a name gives are not always drawn. Like-named read-outs stand apart in the source and are kept apart here.

Legend:
38 MRSA strains [1] = experiment: microbe, parasite or virus in culture; details: Staphylococcus aureus
MRSA strain USA300 [2] = experiment: DiSC3(5) membrane permeabilization; assay type: cell-based, Staphylococcus aureus; details: positive control, 100 nM
Method: Biaryl compounds and their analogues have been reported to be membrane active agents (Isnansetyo and Kamei, 2003 and Kamei et al., 2003). An experiment was performed to verify the membrane permeabilization activity of biaryl compound. C58 using a fluorescent dye, 3,3′-Dipropylthiacarbocyanine iodide (DiSC3(5)). The fluorescence signal from DiSC3(5) is in a quenched state when it interacts with the hydrophobic region of the cell membrane. Upon disruption of the membrane, DiSC3(5) is released and regains its fluorescent activity, which is measured as a fluorescence signal (RFU).

[3] = tested on: R. equi strains 701+, 701−, 703, and 5331; experiment: MIC/MBC broth microdilution against R. equi; assay type: cell-based, Rhodococcus equi
[4] = tested on: MRSA strains USA300, 0606, 0608, 0634, 0641, and 0646; experiment: MIC/MBC against six MRSA strains (variants of C58/C59, pH, DMSO); assay type: cell-based, Staphylococcus aureus
Method: Six MRSA strains, USA300, 0606, 0608, 0634, 0641, and 0646 were chosen based on their activity against biaryl compounds and vancomycin to determine structure-activity relationship of biaryl compounds. The effect of phenolic group on the activity of biaryl compounds was tested by modifying C59. First, the phenolic group was protected by acetylation to yield an acetylated C59 (C59-2) (FIG. 7B). Additional variants of C59, in the form of sodium and lithium salts were synthesized by incubation with sodium hydroxide and lithium hydroxide (FIGS. 7C and 7D). Antimicrobial activity of these deprotonated, water-soluble sodium (C59Na) and lithium (C59Li) salts, and acetylated derivative of C59 was tested against 6 MRSA strains and compared to the parent compound, C59 (FIGS. 8A-8D). Results from this comparative experiment indicate the contribution of phenolic group/phenoxide ion to the antimicrobial activity.
Further investigation into activity of these compounds under acidic pH conditions also points towards the role of phenolic group. An effective antimicrobial should be active under a wide range of pH conditions, including the physiological pH of 7.4. Localized pH in an infection is often lower than the physiological pH, and may be as low as 5.5 (Radovic-Moreno et al., 2012). Additionally, pH varies among organs (Radovic-Moreno et al., 2012). For example, pH in the bladder or on the skin is found to be between 4.5 and 8.0, or 4.0 and 5.5, respectively (Radovic-Moreno et al., 2012). […] The activity of all biaryl compounds is enhanced by at least four- to eight-fold with reduction in pH from 7.4 to 5.5.
Water soluble sodium and lithium salts of C59 (C59Na and C59Li) and their antimicrobial activity against six MRSA strains are reported above. A sodium salt of C58 (C58Na) was prepared and evaluated efficacy of this compound against these six MRSA strains. […] The poor activity of C58Na may be a result of poor stability of C58Na compared with C59Na and C59Li.

H2073 = experiment: Lung cancer cell survival, H2073; assay type: cell-based; details: 72 hour incubation, non-linear curve fit
Method: (§1) The IC50 values generated using a non-linear curve fit with lung cancer cell lines, A549, H460, H2122, and H2073 are listed in Table 10. Experiments were performed using C58, C58-2, C59, C59-2, C119, and acetylated C119 (C119-2). […] Additionally, these concentrations are clinically achievable for treatment of lung cancer and a detailed structure activity relationship experiments needs to be performed to identify promising anticancer candidates.

A549 = experiment: Lung cancer cell survival, A549; assay type: cell-based; details: 72 hour incubation, non-linear curve fit
Method: as §1

H460 = experiment: Lung cancer cell survival, H460; assay type: cell-based; details: 72 hour incubation, non-linear curve fit
Method: as §1

H2122 = experiment: Lung cancer cell survival, H2122; assay type: cell-based; details: 72 hour incubation, non-linear curve fit
Method: as §1

[5] = tested on: erythrocytes from sheep blood; experiment: Hemolytic activity
Method: Toxicity of biaryl compounds was tested against erythrocytes as well as eukaryotic epithelial, dermal, and macrophage cell lines in vitro.
Toxicity of lead antimicrobial candidates was tested against erythrocytes, as well as eukaryotic epithelial and dermal cell lines in vitro.

[6] = tested on: human lung airway epithelial cells (16HBE); details: 24-h incubation, non-linear curve fit
Method: Finally, toxicity of biaryl compounds was tested against human lung airway epithelial cells (16HBE), human dermal fibroblasts, and J774.A1 murine macrophages using an ALAMARBLUE® Cell Viability Assay. Biaryl compounds, C58, acetylated C58 (C58-2), C59, C59-2, C59Na, and C59Li were incubated with cells for 24 hours and an ALAMARBLUE® Cell Viability Assay was performed to determine cell viability relative to untreated controls (FIGS. 13A-13C). Cell viability curves were analyzed using non-linear curve fit to yield the inhibitory concentration at median cell survival (LD50) for all cell lines (Table 3).
Next, the toxicity of lead candidates was tested against human lung airway epithelial cells (16HBE) and human dermal fibroblasts (HDF) using an alamarBlue® Cell Viability Assay.

38 MRSA strains [7] = tested on: 38 MRSA strains
MRSA strain USA300 [8] = experiment: Kill kinetics with planktonic log-phase MRSA; assay type: cell-based, Staphylococcus aureus; details: log-phase USA300, 24 hours
[9] = tested on: MRSA strains USA300 and SALL06; experiment: Kill kinetics with stationary-phase MRSA; assay type: cell-based, Staphylococcus aureus
[10] = tested on: 21 S. epidermidis strains; experiment: MIC90/MBC90 broth microdilution against 21 S. epidermidis strains; assay type: cell-based, Staphylococcus epidermidis; details: Staphylococcus epidermidis
Text: We are currently in the process of evaluating the MICs and MBCs for 5-32.

[11] = tested on: MRSA strains SAD05 and 0632 in a biofilm; experiment: MBEC High-throughput biofilm assay; assay type: cell-based, Staphylococcus aureus; details: 6 hours
[12] = tested on: E. faecalis strains 49532 and 51575; experiment: MIC/MBC broth microdilution against E. faecalis; assay type: cell-based, Enterococcus faecalis; details: Enterococcus faecalis
[13] = tested on: seven S. pneumoniae strains; experiment: MIC/MBC against panel of S. pneumoniae strains; assay type: cell-based; details: Streptococcus pneumoniae
Method: The activity of compounds against Gram-positive pathogens, S. pyogenes and S. pneumoniae, identified through the preliminary screen (FIG. 15) was evaluated against a panel of these pathogens.

[14] = read-out: MBC90, 38 MRSA strains, MH broth

CC(=O)NC[C@H]1CN(c2ccc(N3CCOCC3)c(F)c2)C(=O)O1 [Linezolid]
MIC90 (38 MRSA strains [1]; 38 MRSA strains, MH broth): 4 µg/mL (≈ 11.9 µM)
MBC (38 MRSA strains [1]; [14]): > 32 µg/mL

O=C(Nc1ccc(Cl)c(Cl)c1)c1cc(Cl)cc(Cl)c1O [3,3′,4′,5-tetrachlorosalicylanilide, reference compound]
membrane disruption (DiSC3(5) fluorescence) (MRSA strain USA300 [2]): positive membrane disruption

CO[C@H]1/C=C/O[C@@]2(C)Oc3c(C)c(O)c4c(O)c(c(/C=N/N5CCN(C)CC5)c(O)c4c3C2=O)NC(=O)/C(C)=C\C=C\[C@H](C)[C@H](O)[C@@H](C)[C@@H](O)[C@@H](C)[C@H](OC(C)=O)[C@@H]1C [Rifampicin, reference compound]
MBC ([3]; Rhodococcus (subgen. Prescottella) equi, strain 701+, read-out: MBC): > 192 µg/mL
MIC ([3]; Rhodococcus (subgen. Prescottella) equi, strain 701+, read-out: MIC): 0.5 µg/mL (≈ 0.608 µM)
MBC ([3]; Rhodococcus (subgen. Prescottella) equi, strain 701−, read-out: MBC): > 192 µg/mL
MIC ([3]; Rhodococcus (subgen. Prescottella) equi, strain 703): 0.125 µg/mL (≈ 0.152 µM)
MBC ([3]; Rhodococcus (subgen. Prescottella) equi, strain 703, read-out: MBC): 80 µg/mL (≈ 97.2 µM)
MIC ([3]; Rhodococcus (subgen. Prescottella) equi, strain 5331): 0.125 µg/mL (≈ 0.152 µM)
MBC ([3]; Rhodococcus (subgen. Prescottella) equi, strain 5331, read-out: MBC): 32 µg/mL (≈ 38.9 µM)
MIC ([3]; strain 701−): 0.5 µg/mL (≈ 0.608 µM)

CC(=O)Oc1c(Cl)cc(Cl)cc1-c1cc(Cl)cc(Cl)c1OC(C)=O [C59-2]
antimicrobial activity (MIC and MBC) compared to the parent compound [4]: Reduction of activity
H2073 LD50 (H2073): 45 µM
A549 LD50 (A549): 74 µM
H460 LD50 (H460): 73 µM
MBC ([3]; strain 701+): 16 µg/mL (≈ 39.2 µM)
MIC ([3]; strain 701+): 4 µg/mL (≈ 9.8 µM)
MBC ([3]; strain 701−): 16 µg/mL (≈ 39.2 µM)
MIC ([3]; strain 701−): 4 µg/mL (≈ 9.8 µM)
MBC ([3]; strain 703): 16 µg/mL (≈ 39.2 µM)
MIC ([3]; strain 703): 2 µg/mL (≈ 4.9 µM)
MBC ([3]; strain 5331): 16 µg/mL (≈ 39.2 µM)
MIC ([3]; strain 5331): 4 µg/mL (≈ 9.8 µM)
H2122 LD50 (H2122): 99 µM

CC(=O)Oc1c(Br)cc(Br)cc1-c1cc(Br)cc(Br)c1OC(C)=O [C58-2]
H2073 LD50 (H2073): 36 µM
A549 LD50 (A549): 74 µM
H460 LD50 (H460): 51 µM
H2122 LD50 (H2122): 87 µM

[Na+].[Na+].[O-]c1c(Br)cc(Br)cc1-c1cc(Br)cc(Br)c1[O-] [C58Na]
onset of hemolysis [5]: 32 to 48 µg/mL
activity in the absence of DMSO versus with 2.5% DMSO [4]: at least comparable activity
antimicrobial activity (MIC and MBC) compared to the parent compound [4]: poor activity
16HBE LD50 [6]: 92.3 µg/mL

CCCCCCCCCC(=O)N[C@@H](Cc1c[nH]c2ccccc12)C(=O)N[C@H](CC(N)=O)C(=O)N[C@@H](CC(=O)O)C(=O)N[C@@H]1C(=O)NCC(=O)N[C@@H](CCCN)C(=O)N[C@@H](CC(=O)O)C(=O)N[C@H](C)C(=O)N[C@@H](CC(=O)O)C(=O)NCC(=O)N[C@H](CO)C(=O)N[C@@H]([C@H](C)CC(=O)O)C(=O)N[C@@H](CC(=O)c2ccccc2N)C(=O)O[C@@H]1C [Daptomycin hydrochloride]
MBC90 (38 MRSA strains [7]; MH broth): >32 µg/mL
MBC90 (38 MRSA strains [7]; cation adjusted MH broth): 2 µg/mL

Nc1c(-c2c(O)ccc3ccccc23)cc(Cl)c(Cl)c1Cl [C119]
H2073 LD50 (H2073): 33 µM
A549 LD50 (A549): 52 µM
H460 LD50 (H460): 37 µM
H2122 LD50 (H2122): 58 µM

CN[C@H](CC(C)C)C(=O)N[C@H]1C(=O)N[C@@H](CC(N)=O)C(=O)N[C@H]2C(=O)N[C@H]3C(=O)N[C@H](C(=O)N[C@H](C(=O)O)c4cc(O)cc(O)c4-c4cc3ccc4O)[C@H](O)c3ccc(c(Cl)c3)Oc3cc2cc(c3O[C@@H]2O[C@H](CO)[C@@H](O)[C@H](O)[C@H]2O[C@H]2C[C@](C)(N)[C@H](O)[C@H](C)O2)Oc2ccc(cc2Cl)[C@H]1O [Vancomycin hydrochloride, reference compound]
MIC90 (38 MRSA strains [1]): 2 µg/mL
MBC (38 MRSA strains [1]; read-out: MBC90): 16 µg/mL
change of activity with reduction in pH from 7.4 to 5.5 ([4]; pH 7.4, 6.5, 5.5): does not exhibit any improvement
dose response of bacterial eradication (MRSA strain USA300 [8]): absence of dose response
bacterial counts versus untreated controls ([9]; at 24 hours, 0.5-2.0): no difference
eradication of stationary-phase bacteria ([9]; stationary-phase USA300 and SALL06, up to 24 hours): fails to eradicate the bacterial burden completely
MIC90 [10]: 4 µg/mL
MBC ([10]; read-out: MBC90): 8 µg/mL
activity against biofilm mode bacteria [11]: Lack of activity
MBC ([12]; strain 49532): > 512 µg/mL
MIC ([12]; strain 49532): 1 µg/mL
MBC ([12]; strain 51575): > 192 µg/mL
MIC ([12]; strain 51575): 192 µg/mL
MBC ([13]; read-out: MBCs): 0.25 to 0.5 µg/mL
MIC ([13]; read-out: MICs): 0.25 to 0.5 µg/mL

CCC[C@@H]1C[C@@H](C(=O)N[C@@H]([C@H]2O[C@H](SC)[C@H](O)[C@@H](O)[C@H]2O)[C@H](C)Cl)N(C)C1 [Clindamycin hydrochloride]
MIC90 (38 MRSA strains [1]; 38 MRSA strains, MH broth): ≥ 32 µg/mL
MBC (38 MRSA strains [1]; [14]): ≥ 32 µg/mL
MBC90 (38 MRSA strains [7]; MH broth, hydrochloride): >32 µg/mL
MIC90 (38 MRSA strains [7]; MH broth, hydrochloride): >32 µg/mL

[Li+].[Li+].[O-]c1c(Cl)cc(Cl)cc1-c1cc(Cl)cc(Cl)c1[O-] [C59Li]
activity in the absence of DMSO versus with 2.5% DMSO [4]: at least comparable activity
antimicrobial activity (MIC and MBC) compared to the parent compound [4]: enhanced activity; also recorded: superior activity over C59
16HBE LD50 [6]: 24.4 µg/mL
